“Also recorded” adds a separate entry of the source.
Columns and labels:
[1] = Preliminary safety study, 4 weeks IP treatment in control and STZ-treated mice; format: in vivo, mouse
Procedure: FIG. 10. […] A preliminary safety profile of PHAR treatment was assessed in […] control and streptozotocin (STZ) treated mice. These mice were subjected to a daily IP dose of […] of vehicle (VEH; Tween-80:PBS, 1:13), or PHAR for 5 days a week for 4 weeks. A) weight evolution during the weeks of treatment. (B-E) serum analysis of the levels of albumin (B), total protein (C) and liver transaminases, aspartate transaminase, AST (D), and alanine transaminase, ALT (E). The ranges of normal values are highlighted with a green dashed line. The number of individuals per group is reflected in the graphs.
Preliminary safety studies have been performed in 7-week-old control and streptozotocin (STZ)-treated mice. These mice were subjected to an I.P treatment of 50 mg/kg of vehicle (Tween-80: PBS, 1:13) or PHAR for 4 weeks with 5 weekly doses. […] On the other hand, serum levels of albumin, total protein and two transaminases (AST and ALT) were analyzed.

[2] = system: β-TrCP-NRF2 interaction; test: NRF2 levels after LY294002 (PI3K inhibition, GSK-3β activation) in Keap1−/− MEFs; format: cell-based, mouse; conditions: PHAR 10 μM 1 h, then LY294002 20 μM 15-240 min
[3] = system: peritoneal macrophages (Nrf2+/+); test: Inflammatory response in LPS-stimulated peritoneal macrophages from Nrf2+/+ mice; format: cell-based, mouse; conditions: PHAR 10 μM 8 h, LPS 100 ng/ml 4 h
Procedure: FIG. 8. PHAR reduces inflammatory response in peritoneal macrophages originating from Nrf2^+/+ mice but not in peritoneal macrophages originating from LPS-stimulated Nrf2-4KI mice. Peritoneal macrophages originating from wild-type (WT) and serum-deprived NRF2 knock-in (Nrf2-4Ki) mice were pretreated with 10 μM of PHAR for 8 h. 0.1% DMSO was used as a vehicle. After that period of time, the cells were treated with 100 ng/ml of LPS for 4 h. A), representative immunoblots originating from both cell types of NRF2, HO1, pre-IL1β, COX2, NOS2, and GAPDH as a loading control. B), densitometric analysis of NRF2 and HO1 protein levels of the representative immunoblots of (A), expressed as a ratio of protein/GAPDH levels. The data is depicted as means±SEM (n=3). Statistical analysis was performed with two-way ANOVA followed by the Bonferroni test to compare inter-group differences. *p<0.05; **p<0.01; ***p<0.001 vs. LPS. C), Densitometric analysis of pre-IL1b, COX2, and NOS2 protein levels of the representative immunoblots of (A), expressed as a ratio of protein/GAPDH levels. The data is depicted as means±SEM (n=3). […] D), the mRNA levels of Hmox1, Il1 β, Cox2, Nos2, Il6, and Tnfα were determined by means of qRT-PCR and normalized by means of average Gapdh, Thp, and β-actin. […]

[4] = system: peritoneal macrophages (Nrf2-4KI); test: Inflammatory response in LPS-stimulated peritoneal macrophages from Nrf2-4KI mice; format: cell-based, mouse; conditions: Nrf2-4KI peritoneal macrophages, PHAR 10 μM 8 h
Procedure: FIG. 8. PHAR reduces inflammatory response in peritoneal macrophages originating from Nrf2^+/+ mice but not in peritoneal macrophages originating from LPS-stimulated Nrf2-4KI mice. Peritoneal macrophages originating from wild-type (WT) and serum-deprived NRF2 knock-in (Nrf2-4Ki) mice were pretreated with 10 μM of PHAR for 8 h. 0.1% DMSO was used as a vehicle. After that period of time, the cells were treated with 100 ng/ml of LPS for 4 h. A), representative immunoblots originating from both cell types of NRF2, HO1, pre-IL1β, COX2, NOS2, and GAPDH as a loading control. B), densitometric analysis of NRF2 and HO1 protein levels of the representative immunoblots of (A), expressed as a ratio of protein/GAPDH levels. The data is depicted as means±SEM (n=3). Statistical analysis was performed with two-way ANOVA followed by the Bonferroni test to compare inter-group differences. *p<0.05; **p<0.01; ***p<0.001 vs. LPS. C), Densitometric analysis of pre-IL1b, COX2, and NOS2 protein levels of the representative immunoblots of (A), expressed as a ratio of protein/GAPDH levels. The data is depicted as means±SEM (n=3). Statistical analysis was performed with two-way ANOVA followed by the Bonferroni test to compare inter-group differences. *p<0.05; **p<0.01; ***p<0.001 vs. LPS. D), the mRNA levels of Hmox1, Il1 β, Cox2, Nos2, Il6, and Tnfα were determined by means of qRT-PCR and normalized by means of average Gapdh, Thp, and β-actin. The data is depicted as mean±SEM (n=3). Statistical analysis was performed with two-way ANOVA followed by the Bonferroni test to check inter-group differences. *p<0.05; **p<0.01; ***p<0.001 vs. LPS.
As a complementary approach, peritoneal macrophages extracted from Nrf2^+/+ mice and knock-in mice generated in the laboratory having 4 serines substituted with alanines in critical positions for phosphorylation by priming kinase/priming kinases and by GSK-3β (Serines 335, 338, 342, and 347) were used. Both cell types were pretreated with DMSO or PHAR (10 μM, 8 h) and then stimulated with LPS (100 ng/ml, 4 h). […]

Which “body weight during treatment” value ([1]; control and STZ-treated mice, I.P 50 mg/kg, 5 weekly doses, 4 weeks) does the source give for `O=C1[C@@H]2[C@H](Cc3c[nH]c4ccccc34)N[C@]3(C(=O)Nc4ccc(Cl)cc43)[C@@H]2C(=O)N1c1ccc2c(c1)OCCO2` [PHAR] here?
The value was “did not lose weight”.

And the “serum albumin, total protein, AST and ALT” value ([1]; control and STZ-treated mice, I.P 50 mg/kg, 5 weekly doses, after 4 weeks)?
The value was “values within normal ranges”.

And the “toxicity of chronic / prolonged administration” value ([1]; mice, daily IP 5 days a week for 4 weeks)?
The value was “does not produce toxicity; also recorded: prolonged administration of PHAR is safe”.

And the “NRF2 levels under LY294002 after PHAR pre-treatment” value [2]?
The value was “prevented LY294002-induced NRF2 degradation, but furthermore favored NRF2 accumulation”.

What about the “NRF2 and HO-1 protein levels” value [3] of the same compound?
The value was “significant increase in NRF2 and HO-1 protein levels”.

And the “production of inflammatory markers, protein (pre-IL1β, COX2, NOS2) and mRNA (Il1β, Cox2, Nos2, Il6, Tnfα)” value [3]?
Its value is “significantly lower”.

What about the HO-1 induction [4] of the same compound?
Its HO-1 induction is “the same HO-1 induction”.

What about the NRF2 induction [4] of the same compound?
The NRF2 induction was “considerably lower”.

And the “protective effect against the inflammatory response” value ([4]; LPS 100 ng/ml 4 h)?
Its value is “lost in almost all the inflammatory markers analyzed”.

From patent US12590100B2, “Tetrahydro-spiroindoline-pyrrolopyrrole-triones inhibitors of the NRF2-β-TrCP interaction for use in the treatment of fatty liver disease” (Universidad Autonoma De Madrid, priority 2021, dated 2026)
